Assay results reported in the OPERA property sets (Mansouri et al. 2018).

Row | Structure (SMILES) | logP
1 | O=C1NC(=O)C(c2ccccc2)(c2ccccc2)N1S(=O)(=O)c1ccccc1 | 4.04
2 | CC(=O)Oc1ccc(C(=O)O)cc1 | 1.48
3 | CCOC(=O)C(CC)c1ccc(-n2sc3ccccc3c2=O)cc1 (configuration not stated) | 4.11
4 | CC(C)(C)C(=O)OCn1cc(F)c(=O)[nH]c1=O | 0.66
5 | CCCOc1ccccc1NC(=O)OC1CCCCC1CN(C)C (configuration not stated) | 4.44
6 | COc1n[n+]([O-])c2ccccc2[n+]1[O-] | -0.3
7 | Clc1ccc(-c2ccc(Cl)c(Cl)c2)cc1 | 5.9
8 | CCOC(=O)CCOc1ccc(-n2sc3ccccc3c2=O)cc1 | 3.59
9 | c1ccc(CC2CC3=NOS4=C3C(=NO4)C2)cc1 | 2.8
10 | CCOC(=O)CCCOc1ccc(-n2sc3ccccc3c2=O)cc1 | 3.96
11 | CN(C)C(=O)Oc1cccc(N(C)C)c1 | 1.93
12 | Cc1ccnc(N)c1 | 0.56
13 | CCC(=O)Oc1ccccc1C(=O)O | 1.67
14 | N#CN=C1NCCN1Cc1ccc(Cl)nc1 | 0.77
15 | C=CCNC(=O)NCCCCC(NC(C)=O)C(=O)NCc1ccccc1 (configuration not stated) | 0.76
16 | C#CCNC(=O)NCCCCC(NC(C)=O)C(=O)NCc1ccccc1 (configuration not stated) | 0.23
17 | CCOc1ccc(NC(=O)OCCCl)cc1OCC | 2.62
18 | C#CC(CC)OC(=O)Nc1ccc(OCC)c(OCC)c1 (configuration not stated) | 3.07
19 | CCC(C)c1ccc(OC(=O)N(C)C)cc1 (configuration not stated) | 3.62
20 | COc1ccc2cc(CC(=O)OCC(=O)NC(C)C)ccc2c1 | 2.89
21 | COc1cccc(OC)c1C(=O)Nc1nnc(-c2ccc(Cl)cc2)s1 | 3.96

Row | Structure (SMILES) | logP
22 | Cc1cc2c(cc1C)[n+]([O-])c(N)n[n+]2[O-] | 0.56
23 | C#CCNC(=O)NCCCC(NC(C)=O)C(=O)NCc1ccccc1 (configuration not stated) | -0.31
24 | CCCN(CCCC(NC(C)=O)C(=O)NCc1ccccc1)C(=O)N(C)N=O (configuration not stated) | 1.61
25 | CCCC(=O)Oc1ccccc1C(=O)O | 2.2
26 | C=CCN(N=O)C(=O)NCCCCC(NC(C)=O)C(=O)NCc1ccccc1 (configuration not stated) | 1.62
27 | C#CCOc1ccc(NC=NOCC)cc1OCC#C | 1.9
28 | C=CCN1CCCN(CC=C)C1=S | 2.08
29 | Cc1cccc(O)c1C | 2.48
30 | O=c1[nH]c2ccccc2n1C1CCNCC1 | 1.14
31 | OC1(Cn2cncn2)CCCC1Cc1ccccc1 (configuration not stated) | 2.26
32 | CNC(=O)NCCCC(NC(C)=O)C(=O)NCc1ccccc1 (configuration not stated) | -0.33
33 | CCCN(CCCl)c1c([N+](=O)[O-])cc(C(F)(F)F)cc1[N+](=O)[O-] | 4.63
34 | CC(C)c1ccc(OC(=O)N(C)C)cc1 | 3.04
35 | CC(C)=CCN1CC[C@@]2(C)c3cc(O)ccc3C[C@@H]1[C@@H]2C | 4.64
36 | COc1cccc(OC)c1C(=O)Nc1nnc(-c2ccc(C)cc2)s1 | 3.85
37 | CCOC(=O)Cc1ccc(-n2sc3ccccc3c2=O)cc1 | 3.33
38 | CC1CC2=NOS3=C2C(=NO3)C1 | 1.5
39 | CCC(C(N)=O)c1ccc(-n2sc3ccccc3c2=O)cc1 (configuration not stated) | 2.58
40 | CCc1cccc(OC(=O)N(C)C)c1 | 2.47
41 | COc1ccc2c(c1)[n+]([O-])nc(N)[n+]2[O-] | 0
42 | CCOc1ccc(NC(=O)OCCBr)cc1OCC | 2.78
